pEC50: −log10 of the molar value.
Molecular target: T1, human GPR119 (Homo sapiens, UniProt Q8TDV5)
T1 construct: expression vector for human GPR119 cDNA (Acc. No. NP_848566); expressed in transfected cells
T1 sequence (Q8TDV5 1-335): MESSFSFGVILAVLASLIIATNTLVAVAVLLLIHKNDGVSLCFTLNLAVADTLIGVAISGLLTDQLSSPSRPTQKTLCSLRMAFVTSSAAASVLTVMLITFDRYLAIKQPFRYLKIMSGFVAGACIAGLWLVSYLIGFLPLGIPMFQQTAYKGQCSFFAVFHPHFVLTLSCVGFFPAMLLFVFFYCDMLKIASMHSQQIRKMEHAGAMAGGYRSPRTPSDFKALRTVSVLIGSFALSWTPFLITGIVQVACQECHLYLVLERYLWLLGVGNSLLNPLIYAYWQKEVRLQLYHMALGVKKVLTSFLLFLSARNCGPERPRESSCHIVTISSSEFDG
Test: AlphaScreen cAMP assay in MIN6 cells stably transfected with human GPR119
Type: cell-based
Conditions: Min-6/hGPR119 cells, 45 minutes incubation at room temperature
Procedure: The compounds of formula I according to the invention modulate the activity of the G-protein-coupled receptor GPR119. The effect of the compounds on the activation of GPR119 and on the stimulation of intracellular cAMP concentration is determined using the AlphaScreen cAMP Assay Kit (Cat.No.#6760625R) made by PerkinElmer.
MIN6 cells [Miyazaki J et al. Endocrinology. 1990 July; 127(1):126-32] are stably transfected with an expression vector for human GPR119 cDNA (Acc. No. NP_848566). Min-6/hGPR119 cells are cultured in DMEM, 10% FBS, 50 μM β-mercaptoethanol, 0.3 mg/mL Geniticin, 2 mM GlutaMAX at 37° C. 5% CO2. For the assay, the cells are seeded in Optiplates (white, 384-well, 160W-barcoded, TC, sterile with lid, Cat.No.#6007688 (Perkin Elmer); 10000 cells/well; 50 μl). The plates covered with lids are then incubated for 24 hours at 37° C./5% CO2. After the medium is aspirated from the wells completely, 10 μl of the test compound are added, the compounds are diluted using stimulating buffer (140 mM NaCl, 3.6 mM KCl, 0.5 mM NaH2PO4, 0.5 mM MgSO4, 1.5 mM CaCl2, 10 mM Hepes, 5 mM NaHCO3; pH 7.4. 0.5 mM IBMX and 0.1% BSA, the final DMSO concentration is 1%). After 45 minutes incubation at room temperature (approx. 20° C.), the cAMP concentrations are determined using the AlphaScreen cAMP Assay Kit (Cat.No.#6760625R from PerkinElmer).

SMILES	pEC50
CCOc1ccc(-c2ncc(C(=O)N(C3CC3)C3CCN(c4nc(CC)no4)CC3)cn2)cn1 [Example 10, 2-(6-Ethoxy-pyridin-3-yl)-pyrimidine-5-carboxylic acid cyclopropyl-[1-(3-ethyl-[1,2,4]oxadiazol-5-yl)-piperidin-4-yl]-amide]	7.00
CCc1noc(N2CCC(N(C(=O)c3cnc(-c4ccc(C#N)c(F)c4)nc3)C3CC3)CC2)n1 [Example 11, 2-(4-Cyano-3-fluoro-phenyl)-pyrimidine-5-carboxylic acid cyclopropyl-[1-(3-ethyl-[1,2,4]oxadiazol-5-yl)-piperidin-4-yl]-amide]	7.49
CCc1cnc(N2CCC(N(C(=O)c3cnc(-n4ccnc4)nc3)C3CC3)CC2)nc1 [Example 12, 2-Imidazol-1-yl-pyrimidine-5-carboxylic acid cyclopropyl-[1-(5-ethyl-pyrimidin-2-yl)-piperidin-4-yl]-amide]	7.46
CCCc1noc(N2CCC(N(C(=O)c3noc(-c4ccc(C#N)cc4F)n3)C3CC3)CC2)n1 [Example 18, 5-(4-Cyano-2-fluoro-phenyl)-[1,2,4]oxadiazole-3-carboxylic acid cyclopropyl-[1-(3-propyl-[1,2,4]oxadiazol-5-yl)-piperidin-4-yl]-amide]	8.15
Cc1cnc(N2CCC(N(C(=O)c3cnc(-n4ccnc4C)nc3)C3CC3)CC2)cn1 [Example 19, 2-(2-Methyl-imidazol-1-yl)-pyrimidine-5-carboxylic acid cyclopropyl-[1-(5-methyl-pyrazin-2-yl)-piperidin-4-yl]-amide]	7.01
CS(=O)(=O)c1ccc(-c2ncc(C(=O)N(C3CC3)C3CCN(c4noc(C5CC5)n4)CC3)cn2)cc1 [Example 20, 2-(4-Methanesulfonyl-phenyl)-pyrimidine-5-carboxylic acid cyclopropyl-[1-(5-cyclopropyl-[1,2,4]oxadiazol-3-yl)-piperidin-4-yl]-amide]	7.04
CCCc1noc(N2CCC(N(C(=O)c3cnc(-n4ccnc4)nc3)C3CC3)CC2)n1 [Example 21, 2-Imidazol-1-yl-pyrimidine-5-carboxylic acid cyclopropyl-[1-(3-propyl-[1,2,4]oxadiazol-5-yl)-piperidin-4-yl]-amide]	6.91
CCCc1noc(N2CCC(N(C(=O)c3cnc(-n4ccnc4CC)nc3)C3CC3)CC2)n1 [Example 23, 2-(2-Ethyl-imidazol-1-yl)-pyrimidine-5-carboxylic acid cyclopropyl-[1-(3-propyl-[1,2,4]oxadiazol-5-yl)-piperidin-4-yl]-amide]	6.99
O=C(c1cnc(-n2ccnc2)nc1)N(C1CC1)C1CCN(c2noc(C3CC3)n2)CC1 [Example 25, 2-Imidazol-1-yl-pyrimidine-5-carboxylic acid cyclopropyl-[1-(5-cyclopropyl-[1,2,4]oxadiazol-3-yl)-piperidin-4-yl]-amide]	6.99
Cc1nccn1-c1ncc(C(=O)N(C2CC2)C2CCN(c3ncc(C(F)(F)F)cc3F)CC2)cn1 [Example 27, 2-(2-Methyl-imidazol-1-yl)-pyrimidine-5-carboxylic acid cyclopropyl-(3′-fluoro-5′-trifluoromethyl-3,4,5,6-tetrahydro-2H-[1,2′]bipyridinyl-4-yl)-amide]	8.22
CC(C)c1noc(N2CCC(N(C(=O)c3cc(-c4ccc(C#N)cc4F)no3)C3CC3)CC2)n1 [Example 28, 3-(4-Cyano-2-fluoro-phenyl)-isoxazole-5-carboxylic acid cyclopropyl-[1-(3-isopropyl-[1,2,4]oxadiazol-5-yl)-piperidin-4-yl]-amide]	8.52
CC(C)(C)c1noc(N2CCC(N(C(=O)c3cc(-c4ccc(C#N)cc4F)no3)C3CC3)CC2)n1 [Example 31, 3-(4-Cyano-2-fluoro-phenyl)-isoxazole-5-carboxylic acid [1-(3-tert-butyl-[1,2,4]oxadiazol-5-yl)-piperidin-4-yl]-cyclopropyl-amide]	8.22
CC(C)(C)c1noc(N2CCC(N(C(=O)c3cnc(-c4cnco4)cn3)C3CC3)CC2)n1 [Example 32, 5-Oxazol-5-yl-pyrazine-2-carboxylic acid [1-(3-tert-butyl-[1,2,4]oxadiazol-5-yl)-piperidin-4-yl]-cyclopropyl-amide]	7.85
CC(C)c1noc(N2CCC(N(C(=O)c3cnc(-c4cnco4)cn3)C3CC3)CC2)n1 [Example 33, 5-Oxazol-5-yl-pyrazine-2-carboxylic acid cyclopropyl-[1-(3-isopropyl-[1,2,4]oxadiazol-5-yl)-piperidin-4-yl]amide]	7.60
CC(C)(C)c1noc(N2CCC(N(C(=O)c3ccc(-c4cnco4)nc3)C3CC3)CC2)n1 [Example 36, N-[1-(3-tert-Butyl-[1,2,4]oxadiazol-5-yl)-piperidin-4-yl]-N-cyclopropyl-6-oxazol-5-yl-nicotinamide]	7.34

Continued by rising pEC50, values first:

pEC50	SMILES
6.02	CCc1cnc(N2CCC(N(C(=O)c3ccc(-n4ccnc4)nn3)C3CC3)CC2)nc1 [Example 17, 6-Imidazol-1-yl-pyridazine-3-carboxylic acid cyclopropyl-[1-(5-ethyl-pyrimidin-2-yl)-piperidin-4-yl]-amide]
6.80	CCCc1noc(N2CCC(N(C(=O)c3cnc(-c4ccc(S(C)(=O)=O)cc4)nc3)C3CC3)CC2)n1 [Example 16, 2-(4-Methanesulfonyl-phenyl)-pyrimidine-5-carboxylic acid cyclopropyl-[1-(3-propyl-[1,2,4]oxadiazol-5-yl)-piperidin-4-yl]-amide]
6.81	CCc1nccn1-c1ncc(C(=O)N(C2CC2)C2CCN(c3noc(C4CC4)n3)CC2)cn1 [Example 26, 2-(2-Ethyl-imidazol-1-yl)-pyrimidine-5-carboxylic acid cyclopropyl-[1-(5-cyclopropyl-[1,2,4]oxadiazol-3-yl)-piperidin-4-yl]-amide]
6.86	CCCc1noc(N2CCC(N(C(=O)c3cnc(-n4ccnc4C)nc3)C3CC3)CC2)n1 [Example 22, 2-(2-Methyl-imidazol-1-yl)-pyrimidine-5-carboxylic acid cyclopropyl-[1-(3-propyl-[1,2,4]oxadiazol-5-yl)-piperidin-4-yl]-amide]
7.08	Cc1nccn1-c1ncc(C(=O)N(C2CC2)C2CCN(c3noc(C4CC4)n3)CC2)cn1 [Example 24, 2-(2-Methyl-imidazol-1-yl)-pyrimidine-5-carboxylic acid cyclopropyl-[1-(5-cyclopropyl-[1,2,4]oxadiazol-3-yl)-piperidin-4-yl]-amide]
7.22	CCc1cnc(N2CCC(N(C(=O)c3cnc(-n4ccnc4CC)nc3)C3CC3)CC2)nc1 [Example 15, 2-(2-Ethyl-imidazol-1-yl)-pyrimidine-5-carboxylic acid cyclopropyl-[1-(5-ethyl-pyrimidin-2-yl)-piperidin-4-yl]-amide]
7.48	CC(C)c1noc(N2CCC(N(C(=O)c3ccc(-c4cnco4)nc3)C3CC3)CC2)n1 [Example 35, N-Cyclopropyl-N-[1-(3-isopropyl-[1,2,4]oxadiazol-5-yl)-piperidin-4-yl]-6-oxazol-5-yl-nicotinamide]
7.57	CCc1cnc(N2CCC(N(C(=O)c3ccc(-c4cnco4)nc3)C3CC3)CC2)nc1 [Example 34, N-Cyclopropyl-N-[1-(5-ethyl-pyrimidin-2-yl)-piperidin-4-yl]-6-oxazol-5-yl-nicotinamide]
7.62	CCc1cnc(N2CCC(N(C(=O)c3cnc(-c4ccc(S(C)(=O)=O)cc4)nc3)C3CC3)CC2)nc1 [Example 13, 2-(4-Methanesulfonyl-phenyl)-pyrimidine-5-carboxylic acid cyclopropyl-[1-(5-ethyl-pyrimidin-2-yl)-piperidin-4-yl]-amide]
7.68	CCc1cnc(N2CCC(N(C(=O)c3cnc(-n4ccnc4C)nc3)C3CC3)CC2)nc1 [Example 14, 2-(2-Methyl-imidazol-1-yl)-pyrimidine-5-carboxylic acid cyclopropyl-[1-(5-ethyl-pyrimidin-2-yl)-piperidin-4-yl]-amide]
8.30	CC(C)(C)c1noc(N2CCC(N(C(=O)c3cc(-c4ccc(C#N)cc4F)on3)C3CC3)CC2)n1 [Example 30, 5-(4-Cyano-2-fluoro-phenyl)-isoxazole-3-carboxylic acid [1-(3-tert-butyl-[1,2,4]oxadiazol-5-yl)-piperidin-4-yl]-cyclopropyl-amide]
8.52	CC(C)c1noc(N2CCC(N(C(=O)c3cc(-c4ccc(C#N)cc4F)on3)C3CC3)CC2)n1 [Example 29, 5-(4-Cyano-2-fluoro-phenyl)-isoxazole-3-carboxylic acid cyclopropyl-[1-(3-isopropyl-[1,2,4]oxadiazol-5-yl)-piperidin-4-yl]-amide]
